Reference: patent US20020072485A1, “Prophylactic use of N-methyl-D-aspartate (NMDA) antagonists” (priority 2000, published 2002)

What was measured:
[1] = tested on: static and dynamic allodynia in rats (paw incision model); experiment: Paw incision model for surgical pain, pre-surgery administration; assay type: in vivo, rat; settings: for PWL (paw withdrawal latency) compared to vehicle / PWT (paw withdrawal threshold) compared to vehicle: 72 hours, pre-surgical 10 and 30 mg/kg CP-101,606, pregabalin 30 mg/kg s.c.
Source text: (§1) Basically, in this animal model, an incision is made in the hind paw of the rats, which induces a reproducible and quantifiable mechanical hyperalgesia in the rats lasting several days. Rats are anesthetized, and the plantar surface of the right hind paw of each rat is incised through the skin and fascia. The wound is then closed, for example with sutures, and allowed to heal. The rats are placed into wire mesh bottom cages, allowing access to the underside of their paws. After habituation, tactile allodynia (or “static allodynia”) can be evaluated by touching the right hind paw plantar surface with von Frey hairs in ascending order of force (measured in grams) until a paw-withdrawal response (paw withdrawal threshold or “PWT”) is elicited. Dynamic allodynia can be evaluated by stoking the plantar surface of the right hind paw and measuring (in seconds) the amount of time it takes for a rat to withdraw its paw (paw withdrawal latency or “PWL”).
In the pre-surgery administration assay, a PWT and PWL baseline is measured prior to drug administration and incision. The rats are then given drug (CP-101,606, at separate doses of 3, 10 or 30 mg/kg s.c.) or are given pregabalin (30 mg/kg s.c., as a positive control)), or vehicle (s.c.). The right hind paw each rat is then incised as described above. Measurements are then taken periodically, as described above.

[2] = tested on: static and dynamic allodynia in rats (paw incision model); experiment: Paw incision model for surgical pain, post-surgery administration; assay type: in vivo, rat
Source text: as §1
CP-101,606 was also tested post-surgically using the paw incision model, basically as described above. However, in this assay, rats are administered CP-101,606 (3, 10, or 30 mg/kg, s.c.), pregabalin (30 mg/kg, s.c.), or vehicle (s.c.) post-incision. A baseline is measured before incision and after incision, prior to drug. […] CP-101,606 produced a full reversal of static allodynia and a partial (approximately 40%) reversal of the dynamic subtype.

[3] = biological target: NMDA receptors comprised of NR1/NR2B subunits (Homo sapiens, UniProt Q05586+Q13224); settings: selectivity between NMDA receptor subtypes; cited from earlier work
[4] = tested on: animal models of pain perception; settings: literature (Bernardi 1996; Taniguchi 1997); cited from earlier work
[5] = pre-surgery administration, 30 mg/kg s.c.
[6] = pre-surgery administration, s.c.
[7] = post-incision administration, 30 mg/kg s.c.
[8] = post-incision administration, s.c.

Chain of NMDA receptors comprised of NR1/NR2B subunits (Q13224 27-1484, other chains not shown): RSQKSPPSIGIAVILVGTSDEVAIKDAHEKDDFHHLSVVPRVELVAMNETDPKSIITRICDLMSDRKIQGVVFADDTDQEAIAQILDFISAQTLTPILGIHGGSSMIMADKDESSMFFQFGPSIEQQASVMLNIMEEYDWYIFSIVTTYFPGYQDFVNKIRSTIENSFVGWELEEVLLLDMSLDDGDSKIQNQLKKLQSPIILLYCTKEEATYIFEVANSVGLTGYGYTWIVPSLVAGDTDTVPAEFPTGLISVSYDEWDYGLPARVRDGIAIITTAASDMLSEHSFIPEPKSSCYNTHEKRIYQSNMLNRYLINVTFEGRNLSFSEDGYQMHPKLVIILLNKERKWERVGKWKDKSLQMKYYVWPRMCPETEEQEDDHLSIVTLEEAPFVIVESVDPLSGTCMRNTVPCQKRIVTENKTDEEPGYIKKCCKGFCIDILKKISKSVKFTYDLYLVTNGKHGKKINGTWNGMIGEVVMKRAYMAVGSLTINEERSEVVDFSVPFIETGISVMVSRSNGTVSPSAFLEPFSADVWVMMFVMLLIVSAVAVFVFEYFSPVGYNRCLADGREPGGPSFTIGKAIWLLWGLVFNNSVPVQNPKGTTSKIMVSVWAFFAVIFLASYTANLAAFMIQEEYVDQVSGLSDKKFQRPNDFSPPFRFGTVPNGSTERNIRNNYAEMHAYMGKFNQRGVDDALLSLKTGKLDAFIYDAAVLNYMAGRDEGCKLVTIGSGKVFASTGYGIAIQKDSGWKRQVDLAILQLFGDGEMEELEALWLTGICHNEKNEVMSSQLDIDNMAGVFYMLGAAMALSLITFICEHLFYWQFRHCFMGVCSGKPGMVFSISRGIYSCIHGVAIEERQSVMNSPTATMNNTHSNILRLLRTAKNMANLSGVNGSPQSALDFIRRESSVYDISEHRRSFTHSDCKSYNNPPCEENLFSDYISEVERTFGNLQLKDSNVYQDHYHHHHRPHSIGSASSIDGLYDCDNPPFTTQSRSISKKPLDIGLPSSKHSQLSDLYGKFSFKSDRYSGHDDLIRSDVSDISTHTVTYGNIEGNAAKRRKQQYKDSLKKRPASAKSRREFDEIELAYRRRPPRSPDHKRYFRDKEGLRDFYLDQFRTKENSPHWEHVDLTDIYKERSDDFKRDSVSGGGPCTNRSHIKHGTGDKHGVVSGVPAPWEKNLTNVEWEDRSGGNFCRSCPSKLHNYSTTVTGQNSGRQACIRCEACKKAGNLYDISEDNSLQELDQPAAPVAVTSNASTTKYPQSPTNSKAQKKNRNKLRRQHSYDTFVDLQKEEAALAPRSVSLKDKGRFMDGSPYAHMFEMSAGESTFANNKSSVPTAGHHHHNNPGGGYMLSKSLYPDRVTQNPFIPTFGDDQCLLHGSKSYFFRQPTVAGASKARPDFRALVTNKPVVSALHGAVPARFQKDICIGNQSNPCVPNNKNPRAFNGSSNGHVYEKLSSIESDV

For `Oc1ccc2c(c1)OC[C@@H](N1CCC(O)(c3ccc(F)cc3)CC1)[C@H]2O` (relative stereo), the melting point was 159 to 160 °C.
For `CC(C)C[C@H](CN)CC(=O)O` [pregabalin, reference compound], the “PWL (paw withdrawal latency) compared to vehicle” value [1] was “longer” and the “PWT (paw withdrawal threshold) compared to vehicle” value [1] was “higher”.
With `C[C@@H]([C@@H](O)c1ccc(O)cc1)N1CCC(O)(c2ccccc2)CC1` [CP-101,606, (+)-(1S, 2S)-1-(4-hydroxy-phenyl)-2-(4-hydroxy-4-phenylpiperidino)-1-propanol] the “PWL (paw withdrawal latency) compared to vehicle” value [1] was “longer”, the “PWT (paw withdrawal threshold) compared to vehicle” value [1] was “higher” and the “duration of antiallodynic action” value ([1]; following pre-surgical administration) was “at least 48 hours”. The “latest time at which a preventive effect was seen” value ([1]; post surgery, pre-surgical administration) was 72 h, the “time of peak effect, dynamic allodynia” value [1, 5] was “two” and the “time of peak effect, static allodynia” value [1, 5] was “two”. For the same compound, the “effect on static and dynamic subtypes of allodynia” value ([1]; pre-surgery administration, 3, 10 or 30 mg/kg s.c., rats) was “dose-dependently blocked both static and dynamic subtypes of allodynia”, the “blockade of dynamic allodynia” value [1, 6] was “near full blockade” and the “blockade of static allodynia” value [1, 6] was “full blockade”. For the same compound, the “MED (minimum effective dosage), dynamic allodynia” value ([1]; pre-surgery administration, s.c., PWL) was 10 mg/kg, the “MED (minimum effective dosage), static allodynia” value ([1]; pre-surgery administration, s.c., PWT (von Frey hairs)) was 10 mg/kg and the “duration of effect, dynamic allodynia” value [2, 7] was “two”. The “duration of effect, static allodynia” value [2, 7] was “three”, the “time of peak effect, dynamic allodynia” value [2, 7] was “two” and the “effect on static and dynamic subtypes of allodynia” value ([2]; post-incision administration, 3, 10 or 30 mg/kg s.c., rats) was “dose-dependently diminished both static and dynamic subtypes of allodynia”. For the same compound, the “MED, dynamic allodynia” value [2, 8] was 30 mg/kg, the “MED, static allodynia” value [2, 8] was 10 mg/kg and the “reversal of static allodynia” value [2, 8] was “full reversal”. For the same compound, the “reversal of dynamic allodynia” value ([2]; post-incision administration, s.c., partial reversal) was “approximately 40%”.
In the case of `CC(C(O)c1ccc(O)cc1)N1CCC(Cc2ccccc2)CC1` (stereo not drawn) [Ifenprodil, ifenprodil], the “blockade of ion current, NR1/NR2B compared to NR1/NR2A, NR2C, or NR2D subunits” value [3] is given as “more potent and efficacious” and the analgesic activity [4] is given as “significant analgesic activity”.
